From ChEMBL document CHEMBL1909046, “DrugMatrix in vitro pharmacology data”

Legend:
[1] = target: T1, Muscarinic acetylcholine receptor M4 (Homo sapiens, UniProt P08173); assay type: cell membranes, CHO-K1, Membrane; note: in other assays of this panel Not Active means under 50% inhibition at 10 µM
T1 sequence (P08173 whole entry): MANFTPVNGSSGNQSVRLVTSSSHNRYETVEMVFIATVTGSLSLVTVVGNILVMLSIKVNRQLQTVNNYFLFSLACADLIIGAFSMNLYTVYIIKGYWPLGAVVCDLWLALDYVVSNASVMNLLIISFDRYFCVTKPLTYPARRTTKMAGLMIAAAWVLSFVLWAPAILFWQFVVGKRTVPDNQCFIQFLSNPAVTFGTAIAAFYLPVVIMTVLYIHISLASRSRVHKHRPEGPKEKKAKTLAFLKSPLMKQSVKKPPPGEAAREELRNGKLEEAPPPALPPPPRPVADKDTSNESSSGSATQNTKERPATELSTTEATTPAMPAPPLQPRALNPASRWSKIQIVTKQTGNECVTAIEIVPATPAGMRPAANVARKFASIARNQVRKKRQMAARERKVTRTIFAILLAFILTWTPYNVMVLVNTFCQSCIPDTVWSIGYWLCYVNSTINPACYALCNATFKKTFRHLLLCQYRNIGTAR

[2] = target: T2, Alpha-2C adrenergic receptor (Homo sapiens, UniProt P18825); experiment: DRUGMATRIX: Adrenergic Alpha-2C radioligand binding (ligand: [3H] MK-912); assay type: cell membranes, Sf9, Membrane
T2 sequence (P18825 whole entry): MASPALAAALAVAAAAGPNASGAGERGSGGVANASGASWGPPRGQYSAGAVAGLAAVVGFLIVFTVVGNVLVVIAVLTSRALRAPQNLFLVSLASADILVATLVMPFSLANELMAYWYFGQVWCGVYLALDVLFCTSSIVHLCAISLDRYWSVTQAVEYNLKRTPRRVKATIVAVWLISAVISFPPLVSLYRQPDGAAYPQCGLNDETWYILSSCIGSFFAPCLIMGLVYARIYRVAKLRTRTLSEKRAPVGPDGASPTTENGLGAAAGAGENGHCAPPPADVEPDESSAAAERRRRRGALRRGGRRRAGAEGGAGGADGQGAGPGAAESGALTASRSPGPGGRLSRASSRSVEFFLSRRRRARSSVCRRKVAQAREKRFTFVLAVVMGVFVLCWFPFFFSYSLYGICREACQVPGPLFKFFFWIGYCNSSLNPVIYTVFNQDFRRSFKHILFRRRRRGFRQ

[3] = target: Carbonic anhydrase 2 (Homo sapiens, UniProt P00918); experiment: DRUGMATRIX: Carbonic Anhydrase II enzyme inhibition (substrate: 4-Nitrophenyl acetate (4-NPA)); assay type: tissue-based, Erythrocyte; details: erythrocyte; Not Active = under 50% inhibition at 10 µM
[4] = target: 5-hydroxytryptamine receptor 1B (Rattus norvegicus, UniProt P28564); assay type: cell membranes, Wistar, Cerebral cortex, Membrane; note: in other assays of this panel Not Active means under 50% inhibition at 10 µM
[5] = target: T3, Amine oxidase [flavin-containing] A (Homo sapiens, UniProt P21397); experiment: DRUGMATRIX: Monoamine Oxidase MAO-A enzyme inhibition (substrate: Kynuramine); set-up: species or system BTI-TN-5B1-4; details: bti-tn-5b1-4; Not Active = under 50% inhibition at 10 µM
T3 sequence (P21397 whole entry): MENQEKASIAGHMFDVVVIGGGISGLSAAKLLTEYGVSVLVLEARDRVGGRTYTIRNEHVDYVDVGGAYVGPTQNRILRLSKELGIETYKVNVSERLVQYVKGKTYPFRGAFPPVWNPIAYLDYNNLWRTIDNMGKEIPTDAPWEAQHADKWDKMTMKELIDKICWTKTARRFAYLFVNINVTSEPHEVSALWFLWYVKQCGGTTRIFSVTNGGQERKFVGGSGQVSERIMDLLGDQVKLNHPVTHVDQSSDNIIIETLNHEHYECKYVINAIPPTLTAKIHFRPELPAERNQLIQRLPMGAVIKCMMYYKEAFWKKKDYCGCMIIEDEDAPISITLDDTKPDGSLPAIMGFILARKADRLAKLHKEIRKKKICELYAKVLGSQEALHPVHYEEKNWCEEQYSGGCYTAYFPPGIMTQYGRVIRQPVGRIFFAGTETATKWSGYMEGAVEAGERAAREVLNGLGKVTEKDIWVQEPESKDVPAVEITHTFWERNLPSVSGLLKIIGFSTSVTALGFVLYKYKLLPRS

[6] = target: Beta-3 adrenergic receptor (Homo sapiens, UniProt P13945); experiment: DRUGMATRIX: Adrenergic beta3 radioligand binding (ligand: [125I] Cyanopindolol); assay type: cell membranes, HEK293, Membrane; details: hek293; Not Active = under 50% inhibition at 10 µM
Chain of Beta-3 adrenergic receptor (P13945 whole entry): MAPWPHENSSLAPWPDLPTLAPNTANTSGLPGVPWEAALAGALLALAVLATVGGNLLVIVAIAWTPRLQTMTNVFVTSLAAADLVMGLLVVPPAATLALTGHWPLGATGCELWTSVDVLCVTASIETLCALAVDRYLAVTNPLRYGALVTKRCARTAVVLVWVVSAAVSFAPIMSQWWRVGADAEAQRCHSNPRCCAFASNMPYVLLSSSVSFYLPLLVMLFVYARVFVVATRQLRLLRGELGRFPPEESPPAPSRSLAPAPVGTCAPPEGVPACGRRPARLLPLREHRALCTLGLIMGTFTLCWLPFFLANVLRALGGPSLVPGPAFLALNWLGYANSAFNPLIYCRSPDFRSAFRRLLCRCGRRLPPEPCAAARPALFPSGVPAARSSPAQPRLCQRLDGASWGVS

Chain of 5-hydroxytryptamine receptor 1B (P28564 whole entry): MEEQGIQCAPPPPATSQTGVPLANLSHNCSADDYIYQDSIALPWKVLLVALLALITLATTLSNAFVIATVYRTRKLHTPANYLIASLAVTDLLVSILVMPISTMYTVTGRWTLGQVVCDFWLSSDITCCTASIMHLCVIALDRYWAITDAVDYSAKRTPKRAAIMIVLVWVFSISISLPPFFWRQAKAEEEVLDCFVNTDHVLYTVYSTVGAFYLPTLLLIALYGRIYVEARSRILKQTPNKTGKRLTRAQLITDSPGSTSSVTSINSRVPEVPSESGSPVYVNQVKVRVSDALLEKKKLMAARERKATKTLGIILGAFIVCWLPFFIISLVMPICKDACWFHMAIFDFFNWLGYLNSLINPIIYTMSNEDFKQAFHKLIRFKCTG

Row | Compound | IC50 ([1]; cho-k1) | IC50 ([2]; sf9) | IC50 [3] | IC50 [4] | IC50 [5] | IC50 [6] | other results
1 | CCOc1cc(N)c(Cl)cc1C(=O)NCC1CN(Cc2ccc(F)cc2)CCO1 (stereo not given) [MOSAPRIDE] | Not Active | Not Active | Not Active | Not Active | Not Active | Not Active | 
2 | O=C(c1ccccc1)c1ccc2n1CCC2C(=O)O (stereo not given) [KETOROLAC] | Not Active | Not Active | Not Active | Not Active | Not Active | Not Active | 
3 | Nc1nc(N)c2nc(-c3ccccc3)c(N)nc2n1 | Not Active | Not Active | Not Active | Not Active | Not Active | Not Active | 
4 | Oc1ccc(/C=C/c2cc(O)cc(O)c2)cc1 [RESVERATROL] | Not Active | Not Active | Not Active | Not Active |  | Not Active | 
5 | Cc1ccnc(NS(=O)(=O)c2ccc(N)cc2)n1 [SULFAMERAZINE] | Not Active | Not Active |  | Not Active | Not Active | Not Active | 
6 | CCN1CCCC1CNC(=O)c1cc(S(N)(=O)=O)ccc1OC (stereo not given) [SULPIRIDE] | Not Active | Not Active |  | Not Active | Not Active | Not Active | 
7 | O=C1CC[C@@]2(O)[C@H]3Cc4ccc(O)c5c4[C@@]2(CCN3CC2CC2)[C@H]1O5 [NALTREXONE] | Not Active | Not Active | Not Active | Not Active | Not Active | Not Active | 
8 | CCN(CC)C(=S)SSC(=S)N(CC)CC | Not Active | Not Active | Not Active |  |  | Not Active | IC50 ([4]; read-out: IC50): 4720 nM; Ki ([4]; read-out: Ki): 2150 nM
9 | O=C(OC[C@H]1O[C@@H](OC(=O)c2cc(O)c(O)c(OC(=O)c3cc(O)c(O)c(O)c3)c2)[C@H](OC(=O)c2cc(O)c(O)c(OC(=O)c3cc(O)c(O)c(O)c3)c2)[C@@H](OC(=O)c2cc(O)c(O)c(OC(=O)c3cc(O)c(O)c(O)c3)c2)[C@@H]1OC(=O)c1cc(O)c(O)c(OC(=O)c2cc(O)c(O)c(O)c2)c1)c1cc(O)c(O)c(OC(=O)c2cc(O)c(O)c(O)c2)c1 [TANNIC ACID] | Not Active | Not Active | Not Active | Not Active | Not Active | Not Active | 
10 | C=CCc1ccc2c(c1)OCO2 [SAFROLE] | Not Active | Not Active | Not Active | Not Active | Not Active | Not Active | 
11 | C#C[C@]1(O)CC[C@H]2[C@@H]3[C@H](C)CC4=C(CCC(=O)C4)[C@H]3CC[C@@]21C [TIBOLONE] | Not Active | Not Active | Not Active | Not Active | Not Active | Not Active | 
12 | CC[C@@]1(O)C(=O)OCc2c1cc1n(c2=O)Cc2cc3c(CN(C)C)c(O)ccc3nc2-1 [TOPOTECAN] | Not Active | Not Active | Not Active | Not Active | Not Active | Not Active | 
13 | CC1(C)[C@H](C(=O)O)N2C(=O)C[C@H]2S1(=O)=O [SULBACTAM] | Not Active | Not Active | Not Active | Not Active | Not Active | Not Active | 
14 | CCN(CC)N=O [N-NITROSODIETHYLAMINE] | Not Active | Not Active | Not Active | Not Active | Not Active | Not Active | 
15 | C[C@]12CCC(=O)C[C@@H]1CC[C@@H]1[C@@H]2CC[C@]2(C)[C@@H](O)CC[C@@H]12 [STANOLONE] | Not Active | Not Active | Not Active | Not Active | Not Active | Not Active | 
16 | Cc1cccc(C)c1NC(=O)C(C)N (stereo not given) [TOCAINIDE] | Not Active | Not Active | Not Active | Not Active | Not Active | Not Active | 
17 | LEAD(IV) ACETATE | Not Active | Not Active | Not Active | Not Active | Not Active | Not Active | Ki ([1]; cho-k1): Not Active; Ki ([2]; sf9): Not Active; Ki [3]: Not Active; Ki [4]: Not Active; Ki [5]: Not Active; Ki [6]: Not Active
18 | CC#C[C@]1(O)CC[C@H]2[C@@H]3CCC4=CC(=O)CCC4=C3[C@@H](c3ccc(N(C)C)cc3)C[C@@]21C [MIFEPRISTONE] | Not Active | Not Active | Not Active | Not Active | Not Active | Not Active | 
19 | CS(=O)(=O)c1ccc(C2=C(c3ccccc3)C(=O)OC2)cc1 [ROFECOXIB] | Not Active | Not Active | Not Active | Not Active | Not Active | Not Active | 
20 | COC(=O)Nc1nc2ccc(C(=O)c3ccccc3)cc2[nH]1 [MEBENDAZOLE] | Not Active | Not Active | Not Active | Not Active | Not Active | Not Active | 
21 | CC(O)C(=O)O (stereo not given) [LACTIC ACID] | Not Active | Not Active | Not Active | Not Active | Not Active | Not Active | 
22 | CC(N)C12CC3CC(CC(C3)C1)C2 (stereo not given) [RIMANTADINE] | Not Active | Not Active | Not Active | Not Active | Not Active | Not Active | 
23 | CN1C[C@H](CNC(=O)OCc2ccccc2)C[C@@H]2c3cccc4c3c(cn4C)C[C@H]21 [METERGOLINE] | Not Active |  | Not Active |  | Not Active | Not Active | IC50 ([2]; read-out: IC50): 189 nM; Ki ([2]; read-out: Ki): 27 nM; IC50 ([4]; read-out: IC50): 19 nM; Ki ([4]; read-out: Ki): 11 nM
24 | CO[C@@H]1[C@@H](OC)[C@H](C)[C@@](O)(CC(=O)O)O[C@H]1[C@H](C)[C@H]1O[C@@]2(CC[C@@](C)([C@H]3CC[C@@](C)([C@@H]4O[C@@H]([C@H]5O[C@](C)(O)[C@H](C)C[C@@H]5C)C[C@@H]4O[C@@H]4C[C@H](OC)[C@@H](OC)[C@H](C)O4)O3)O2)C[C@H](O)[C@H]1C.N [MADURAMICIN] | Not Active | Not Active | Not Active | Not Active | Not Active | Not Active | 
25 | CCOC(=O)C1=C(C)NC(C)=C(C(=O)OCC)C1c1ccccc1/C=C/C(=O)OC(C)(C)C [LACIDIPINE] | Not Active | Not Active | Not Active | Not Active | Not Active | Not Active | 
26 | Cc1cc2c(s1)Nc1ccccc1N=C2N1CCN(C)CC1 [OLANZAPINE] |  |  | Not Active |  | Not Active | Not Active | IC50 ([4]; read-out: IC50): 707 nM; Ki ([4]; read-out: Ki): 433 nM
27 | C[N+]1(C)[C@@H]2C[C@@H](OC(=O)[C@H](CO)c3ccccc3)C[C@H]1[C@@H]1O[C@@H]12.[Br-] [METHSCOPOLAMINE BROMIDE] |  | Not Active | Not Active | Not Active | Not Active | Not Active | 
28 | CNCCCC12CCC(c3ccccc31)c1ccccc12 [MAPROTILINE] |  |  | Not Active | Not Active | Not Active | Not Active | IC50 ([1]; read-out: IC50): 413 nM; Ki ([1]; read-out: Ki): 58 nM
29 | CN(C)CCC=C1c2ccccc2COc2ccccc21 [DOXEPIN] |  |  | Not Active | Not Active | Not Active | Not Active | 
